# Reference: article PMC4341462, “Human RNASET2 derivatives as potential anti-angiogenic agents: actin binding sequence identification and characterization” (Oncoscience, 2014)
# How the values were obtained:
# [1] = biological target: T1, Actin from rabbit muscle (Sigma A2522) (Oryctolagus cuniculus, UniProt P68135); test: Surface plasmon resonance (BIAcore 3000) of actin binding; details: actin on CM5 chip, amine coupling, 5 concentrations, 10 μl/min, 25°C
# T1 construct: purchased Sigma A2522; host or cells: rabbit muscle (tissue-purified)
# Protocol: SPR was performed on a BIAcore 3000 instrument (BIAcore, Uppsala, Sweden). Actin was diluted in 100 mM CH3COONa pH 4.6 to a final concentration of 20μg/ml (200μl total) resulting in ~1ng immobilized actin on a CM5 BIAcore sensor chip (GE Healthcare Bio-Sciences AB) using the standard BIAcore amine coupling chemistry protocol. The CM5 chip allows four separate flow cells to be operated in the BIAcore 3000 instrument used in these experiments. Coupling is achieved by activating the surface of the sensor chips with equal volumes of 50 mM N-hydroxysuccimide (NHS)/200 mM Nethyl-N-(3-[…])-carboiimide (EDC) (BIAcore, AB, Uppsala, Sweden) to form activated carboxyl groups. In the BIAcore protocol the binding is believed to be between carboxyl groups on the surface and amine groups on the protein. The actin solution (15 μg/ml) was then run over the chip for 5 min at a rate of 10 μl/min, where the amine groups on protein react with the activated esters. In the final stage of immobilization, the surface was blocked by 1M ethanol amine, pH 8.0. The binding assay was performed by injecting the hRNASET2, trT2-50, trT2-50m or peptides solutions in running buffer (HBS-10mM Hepes, 150mM Sodium Chloride, 3mM EDTA, 0.005% Polysorbate 20) at 5 different concentrations at a flow rate of 10 μl/min at 25°C. Injections were performed simultaneously over all four channels and blank surface a plain dextran matrix (channel 1) was used as control. The net signal was obtained by subtracting the blank signal from the signal of the immobilized surface. The association phase for protein or peptides binding to actin was followed for 4 min, and dissociation phases were monitored for 3 min. Surface regeneration between consecutive binding cycles included a 1 min injection of 1 mM NaOH. The response was monitored as a function of time (sensorgram) at 25°C. Multi-concentration data were globally fit using BIA evaluation 3.2 software.
# The strength of a two molecule interaction is characterized by the equilibrium dissociation (binding) constant KD =[P][L]/[PL], where [P] is the concentration of free protein (or peptide), [L] the concentration of ligand and [PL] the concentration of the complex. At equilibrium, KD is related to the rate of complex formation (described by the association rate constant, ka) and the rate of breakdown (described by the dissociation rate constant, kd ), such that KD =[…]. A high affinity interaction is characterized by a low KD, rapid recognition and binding by high ka, and stability of complex formation by low kd.
# actin = actin (Oryctolagus cuniculus, UniProt P68135); test: Actin binding solid phase assay (ELISA); details: from 500 ng/well, 1 h at 37°C, discussion also refers to BIAcore
# From the text: For further insight on the actin binding site within the hRNASET2 protein sequence we tested 29 suspected peptides for their ability to bind actin. The actin-binding capability of the 29 synthetic peptides was compared to the binding capability of trT2-50 using a solid phase actin binding assay. […] We next tested the interaction kinetics to evaluate the interaction nature as described for trT2-50 and trT2-50m. […] In addition, there is a linear relation between the protein concentration and the maximal (steady-state) response for peptides A103-Q159 and K108-K133, indicating the pseudo-first-order regime in relation to the immobilized actin.
# 96-well plates (MaxiSorp® flat-bottom 96-well plate, Fisher Scientific Inc., Fair Lawn, NJ) were coated with 500 ng actin in 100 μl carbonate-bicarbonate buffer (pH 9.5) for 1 h at 37°C. The plate was washed once with TBS and then blocked with 3% BSA in 200 μl TBS buffer at 37°C, for 1 h. Wells were then washed once with 250 μl TBS. trT2-50, trT2-50m or each of the 29 peptides were added at 1:2 dilutions in 100 μl TBS, starting from 500 ng/well, incubated for 1 h at 37°C and then washed three times with TBS containing 0.1% Tween-20 (TBST). […] Absorbance at 655 nm was measured 10 min thereafter using a Power Wave 200 Microplate Scanning Spectrophotometer (Bio-Tek Instrument, Winooski, VT). Affinity was evaluated by double reciprocal plot.
# [2] = system: HUVEC (VEGF-induced tube formation); test: HUVEC tube formation assay on Matrigel, VEGF-induced; assay type: cell-based, human; details: 2 μM, VEGF 1 μg/ml, 8 h, vs PBS control, N=5
# Protocol: (§1) Figure 4 trT2-50m and peptides A103-Q159 (57aa) and K108-K133 (26aa) inhibit angiogenin- and VEGF-induced HUVEC tube formation on Matrigel Freshly isolated HUVECs were plated in a 96-well plate previously coated with Matrigel. (A): Cells were treated with either peptide A103-Q159, K108-K133 or K108-L123 (2μM) or PBS (control), in addition to angiogenin or VEGF (1 μg/ml). (B): tube formation was assessed using Image J, the results are represented as percent of control. […] (C): Cells were treated with trT2-50m (2μM) or PBS (control), in addition to angiogenin or VEGF (1 μg/ml).
# (§2) Freshly isolated HUVEC were maintained in endothelial cell growth medium (EGM) supplemented with SingleQuots (EGM BulletKit CC-3124, Lonza). They were then plated in a 96-well plates (14 × 10^3 cells/well) previously coated with growth factor-depleted Matrigel (Becton-Dickinson, Bedford, MA) in M199 medium supplemented with 20% FBS, 1% glutamine, 1% antibiotic–antimycotic solution (Biological Industries) and 50 U/100 ml heparin (Biomedical Technologies Inc., Stoughton, MA). Cells were treated with trT2-50m (2 μM), peptides or PBS, in addition to angiogenin (R&D Systems, Inc. Minneapolis, MN), or VEGF (Protein Laboratories, Rehovot, Israel) (1 μg/ml each). After 8 h of incubation at 37°C, the plates were photographed and the extent of tube formation was counted using Image J (NIH, Bethesda, MD) software. […]
# [3] = system: HUVEC (angiogenin-induced tube formation); test: HUVEC tube formation assay on Matrigel, angiogenin-induced; assay type: cell-based, human; details: 2 μM, angiogenin 1 μg/ml, 8 h, vs PBS control, N=5
# Protocol: as §1, §2
# HUVECs = test: Immunofluorescence: localization and co-localization of peptide and angiogenin in HUVECs; assay type: cell-based, human; details: anti-angiogenin (red)
# Protocol: Cells were cultured on PBS-covered slides in 12-well plates with 0.1% pork gelatin (Sigma-Aldrich) and were incubated with peptide K108-K133 or angiogenin. Cells were fixed with 3% Paraformaldehyde (PFA) (Merck Millipore, Dermstadt, Germany) containing 0.5% triton, washed three times with PBS and blocked with 5% donkey serum (Jackson ImmunoResearch). Rabbit anti-angiogenin (Merck Millipore) was added (1:100 dilution; prepared in 5% donkey serum) and incubated overnight at 4°C. After washing three times with TBST, the slides were incubated for 1 h with Alexa 488-conjugated anti-rabbit antibody (Invitrogen Life Technologies) and phalloidin tetramethylrhodamine B isothiocyanate–conjugated […] (Sigma-Aldrich), and then washed, and mounted with a mixture containing 30% mounting medium, 4′,6-diamidino-2-phenylindole (DAPI) (Santa Cruz Biotechnology Inc., Santa Cruz, CA) and 70% fluoromount (Sigma-Aldrich). The slides were viewed under a Leicactr4000 laser scanning confocal microscope.
# CAM = test: Ex ovo CAM angiogenesis assay; assay type: in vivo, chicken; details: 3 μg on filter paper disk every day for 4 days from day 8, vs PBS; N=3 for hRNASET2 and trT2-50, N=5 for peptides and PBS
# Protocol: In this assay we used fertilized eggs cracked into a petri dish after […] of incubation in 37°C and 60% humidity. In the following days, the embryos developed a vascular network. Treatment began on the eighth day of incubation and was delivered drop-wise onto disks of Whatman paper that had been placed on the developing vascular regions. The treatment was performed every day for 4 days. The number of blood vessels around the treated disk was counted every day.
# Fertilized chicken eggs were incubated horizontally at 37°C and humidity of 60 - 62% and cracked into Petri dishes at embryonic day 4. Incubation was continued under the same conditions. On day 8, sterile filter paper disks (5.5 mm in diameter) were layered on top of the CAM and soaked either with 5 μl PBS or 3 μg hRNASET2, trT2-50, peptide A103-Q159 or peptide K108-K133. Treatment was given every day for four days, then, the number of blood vessels around the treated disks was counted. (For hRNASET2 and trT2-50, N=3; for peptide A103-Q159, peptide K108-K133 and PBS, N=5).
molecule,measurement,setting,value
CC[C@H](C)[C@H](NC(=O)CNC(=O)[C@H](CC(C)C)NC(=O)[C@H](CCCCN)NC(=O)[C@H](CC(C)C)NC(=O)[C@H](CC(C)C)NC(=O)[C@@H](NC(=O)[C@H](CO)NC(=O)[C@H](CC(N)=O)NC(=O)[C@H](CC(C)C)NC(=O)[C@H](CC(=O)O)NC(=O)[C@H](CC(C)C)NC(=O)[C@H](CCC(=O)O)NC(=O)[C@H](CCCNC(=N)N)NC(=O)[C@H](Cc1ccc(O)cc1)NC(=O)[C@H](CC(C)C)NC(=O)[C@H](CCC(=O)O)NC(=O)[C@H](CC(C)C)NC(=O)[C@H](CO)NC(=O)[C@H](CCCNC(=N)N)NC(=O)CNC(=O)[C@H](Cc1ccccc1)NC(=O)[C@H](Cc1ccc(O)cc1)NC(=O)[C@H](CCCCN)NC(=O)[C@@H](N)CCCCN)C(C)C)C(=O)N[C@@H](CCCCN)C(=O)O [Peptide K108-K133],kon,"[1]; HBS (10mM Hepes, 150mM NaCl, 3mM EDTA, 0.005% Polysorbate 20), association 4 min, dissociation 3 min, global fit BIAevaluation 3.2, read-out: association rate Ka",14200 M⁻¹ s⁻¹
same,koff,"[1]; HBS (10mM Hepes, 150mM NaCl, 3mM EDTA, 0.005% Polysorbate 20), dissociation 3 min, global fit BIAevaluation 3.2, read-out: dissociation rate Kd",0.0458 s⁻¹
Peptide K108-L123: peptide K108-L123 (16 aa) that failed to bind actin,ability to bind actin (in words),actin,failed to bind actin
same,inhibition of VEGF-induced tube formation (in words),[2],unable to inhibit tube formation
same,inhibition of angiogenin-induced tube formation (in words),[3],unable to inhibit tube formation
"angiogenin: angiogenin (R&D Systems, Inc. Minneapolis, MN)",localization of angiogenin in presence of peptide K108-K133,HUVECs; 2 and 8 h of incubation with the peptide and angiogenin,Same angiogenin localization was observed after 2 and 8 h
same,localization of angiogenin in presence of peptide K108-K133,HUVECs; 10 min of incubation with the peptide and angiogenin,"located in the nucleus, the cytoplasm surrounding the nucleus, on the actin fibers and outside the cell"
"hRNASET2: full-length human RNASET2, produced in CHO, T2BIOTECH Ltd",blood vessels around the treated disk,CAM,fewer blood vessels developed compared to the control
same,association rate Ka,"[1]; HBS (10mM Hepes, 150mM NaCl, 3mM EDTA, 0.005% Polysorbate 20), association 4 min, dissociation 3 min, global fit BIAevaluation 3.2",2.40 × 10^3 (1/Ms)
same,dissociation rate Kd,"[1]; HBS (10mM Hepes, 150mM NaCl, 3mM EDTA, 0.005% Polysorbate 20), dissociation 3 min, global fit BIAevaluation 3.2",0.00346 s⁻¹
same,Kd,"[1]; HBS, determined from kinetic analyses, BIAevaluation 3.2, read-out: dissociation constant KD",1440 nM
